Here are results for one molecule from paper PMC7080406 (eLife, 2020).

SMILES strings stand for the structures. “Also recorded” adds a separate entry of the source.

For experiment [1], the target named is T1, MT2 (Homo sapiens, UniProt P49286).
T1 sequence (P49286 1-362): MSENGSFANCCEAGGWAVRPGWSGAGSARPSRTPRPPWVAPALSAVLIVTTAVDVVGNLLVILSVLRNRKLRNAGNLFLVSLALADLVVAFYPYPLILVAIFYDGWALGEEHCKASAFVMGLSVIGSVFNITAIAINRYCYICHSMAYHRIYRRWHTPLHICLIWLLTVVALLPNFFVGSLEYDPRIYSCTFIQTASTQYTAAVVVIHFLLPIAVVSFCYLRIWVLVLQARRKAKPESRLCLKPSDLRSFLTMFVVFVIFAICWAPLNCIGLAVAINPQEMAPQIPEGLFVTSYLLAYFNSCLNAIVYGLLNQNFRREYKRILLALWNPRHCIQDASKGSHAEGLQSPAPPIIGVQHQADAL
The experiment is described as follows: Tango β-arrestin recruitment assay, MT2. In kind it is cell-based. Details: expressed in transfected cells; transient transfection. The note with it: result in words; compared to G-protein. As to the method: Tango arrestin recruitment assays were carried out according to the previously published procedure [Kroeze et al. (2015)]. In brief, HTLA cells were transiently transfected with receptor TANGO DNA constructs overnight in DMEM with 10% FBS. Transfected cells were then plated into poly-L-Lys coated 384-well plates using DMEM supplemented with 1% dialyzed FBS. After 6 hr incubation, drug dilutions, prepared in DMEM with 1% dFBS, were added for incubation overnight (16–20 hr). Medium and drug solutions were removed, Bright-Glo reagent (20 uL/well) was added for luminescence counting 20 min later. Results were analyzed in GraphPad Prism 7.0.

Experiment [2] deals with T1, MT2. The experiment is described as follows: Bias factor, Gi-cAMP versus Tango (Black and Leff operational model), MT2. The experiment is classed as cell-based. Details: expressed in transfected cells; host or cells: HEK293T (ATCC CRL-11268), transient transfection. Particulars: G-protein over β-arrestin at MT2; reference melatonin; 10^ΔΔLog(τ/KA). The method, then:
Bias factors were estimated according to the published procedure [Kenakin et al. (2012)] with modifications. Briefly, normalized and pooled results were analyzed by fitting the Black and Leff operational model in Prism 7.0 to obtain Log(τ/KA) values for each pathway (Tango and Gi-cAMP). Within each signaling pathway, a difference of Log(τ/KA), ΔLog(τ/KA), between a test compound and selected reference (melatonin in this case) was calculated. For a testing compound, the difference of ΔLog(τ/KA), ΔΔLog(τ/KA), was then obtained between two pathways. The bias factor is 10^ΔΔLog(τ/KA).

For experiment [3], the target named is T1, MT2. The experiment is described as follows: [3H]melatonin competition radioligand binding, MT2 membranes. Details: expressed in transfected cells; host or cells: HEK293T (ATCC CRL-11268), transient transfection. Particulars: read-out: MT2 pKi ± SEM (converted). The method, then: The Radioligand binding assays were conducted by the NIMH Psychoactive Drug Screening Program (PDSP). The NIMH PDSP is directed by Bryan L. Roth, MD, PhD, at the University of North Carolina at Chapel Hill, North Carolina, and Program Officer Jamie Driscoll at NIMH, Bethesda, MD. Binding assay procedures and protocols are also available online at http://pdspdb.unc.edu/pdspWeb/?site=assays. […] Assay plates were sealed and incubated for 4 hr at 37°C in a humidified incubator until harvesting. Plates were harvested using vacuum filtration onto 0.3% polyethyleneimine pre-soaked 96-well Filtermat A (PerkinElmer) and washed three times with cold wash buffer (50 mM Tris, pH 7.4). Filters were dried and melted with a scintillation cocktail (Meltilex, PerkinElmer). Radioactivity was counted using a Wallac TriLux Microbeta counter (PerkinElmer). Results were analyzed using GraphPad Prism 7.0.

For the molecule `COc1ccc2[nH]cc(CCNC(N)=O)c2c1` [Compound 28, [2-(5-methoxy-1H-indol-3-yl)ethyl]urea], the “β-arrestin signaling / arrestin recruitment at MT2” value in experiment [1] is given as “dramatically reduced arrestin recruitment; also recorded: marked reduction in β-arrestin signaling compared to G-protein”. The molecule further came in with a bias factor in experiment [2] of 33.9. In experiment [3], the Ki is 23.4 nM.
